Reference: PubChem BioAssay AID256 (DTP/NCI, 2004)
Inconclusive results and toxic doses are left out.

Test system: CD2F1 mice, L1210 leukemia ip, survival T/C
Assay: NCI In Vivo Anticancer Drug Screen. Data for tumor model L1210 Leukemia (intraperitoneal) in CD2F1 (CDF1) mice
Conditions: higher = longer survival
Summary of the method: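 Implant tumor; dose compound or vehicle; measure endpoint in both groups; report treated divided by control.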

[1] = endpoint: mean survival time, dose: 25.0 mg/kg/injection, schedule: Q01DX009 (ip), vehicle: saline with Tween-80
[2] = endpoint: mean survival time, dose: 100.0 mg/kg/injection, schedule: Q04DX003 (ip), vehicle: saline with Tween-80
[3] = endpoint: mean survival time, dose: 200.0 mg/kg/injection, schedule: Q04DX003 (ip), vehicle: saline with Tween-80
[4] = endpoint: mean survival time, dose: 400.0 mg/kg/injection, schedule: Q04DX003 (ip), vehicle: saline with Tween-80

`OC(c1cc2ccc(C(F)(F)F)cc2c2cc(C(F)(F)F)ccc12)C1CCCCN1` (stereo not drawn) was tested. Which T/C (endpoint: mean survival time, dose: 9.4 mg/kg/injection, schedule: Q01DX009 (ip), vehicle: saline) did it give?
Its T/C is 101 % of control.

And the T/C (endpoint: mean survival time, dose: 18.8 mg/kg/injection, schedule: Q01DX009 (ip), vehicle: saline)?
Its T/C is 102 % of control.

And the T/C (endpoint: mean survival time, dose: 37.5 mg/kg/injection, schedule: Q01DX009 (ip), vehicle: saline)?
Its T/C is 96 % of control.

Which results are given for `CCc1nc(N)nc(N)c1-c1ccc(Cl)c([N+](=O)[O-])c1`?
T/C (endpoint: mean survival time, dose: 3.12 mg/kg/injection, schedule: Q01DX009 (ip), vehicle: saline with Tween-80): 101 % of control; T/C (endpoint: mean survival time, dose: 6.25 mg/kg/injection, schedule: Q01DX009 (ip), vehicle: saline with Tween-80): 106 % of control

With `Cc1c2ccccc2c(C)c2c1ccc1ccccc12` as the molecule, how does the T/C [1] read?
Its T/C is 106 % of control.

And the T/C [2]?
Its T/C is 106 % of control.

And the T/C (endpoint: mean survival time, dose: 125.0 mg/kg/injection, schedule: Q04DX003 (ip), vehicle: Klucel (hydroxypropylcellulose) (HPC))?
Its T/C is 121 % of control.

`Cc1ccc(S(=O)(=O)NC(=O)C2C(=O)CC3(CCCCC3)CC2=O)cc1` was tested. Which T/C (endpoint: median survival time, dose: 50.0 mg/kg/injection, schedule: Q01DX009 (ip), vehicle: Klucel (hydroxypropylcellulose) (HPC)) did it give?
The T/C was 100 % of control.

And the T/C (endpoint: median survival time, dose: 100.0 mg/kg/injection, schedule: Q01DX009 (ip), vehicle: Klucel (hydroxypropylcellulose) (HPC))?
Its T/C is 102 % of control.

How did the T/C (endpoint: mean survival time, dose: 100.0 mg/kg/injection, schedule: Q01DX001 (ip), vehicle: carboxymethylcellulose (CMC)) turn out when `Nc1nc(N)n2nnnc2c1[N+](=O)[O-]` was run?
The T/C was 108 % of control.

With `CSc1nc(N)c2cnn(C3OC(CO)C(O)C3O)c2n1` (stereo not drawn) as the molecule, how does the T/C (endpoint: median survival time, dose: 8.13 mg/kg/injection, schedule: Q01DX005 (ip), vehicle: saline with Tween-80) read?
The T/C was 100 % of control.

And the T/C (endpoint: median survival time, dose: 9.0 mg/kg/injection, schedule: Q01DX005 (ip), vehicle: saline)?
Its T/C is 107 % of control.

And the T/C (endpoint: median survival time, dose: 12.5 mg/kg/injection, schedule: Q01DX005 (ip), vehicle: saline with Tween-80)?
The T/C was 102 % of control.

And the T/C (endpoint: median survival time, dose: 16.25 mg/kg/injection, schedule: Q01DX005 (ip), vehicle: saline with Tween-80)?
The T/C was 97 % of control.

And the T/C (endpoint: median survival time, dose: 18.0 mg/kg/injection, schedule: Q01DX005 (ip), vehicle: saline)?
The T/C was 100 % of control.

What about the T/C (endpoint: median survival time, dose: 25.0 mg/kg/injection, schedule: Q01DX005 (ip), vehicle: saline with Tween-80) of the same molecule?
Its T/C is 100 % of control.

And the T/C (endpoint: median survival time, dose: 32.5 mg/kg/injection, schedule: Q01DX005 (ip), vehicle: saline with Tween-80)?
The T/C was 101 % of control.

And the T/C (endpoint: median survival time, dose: 36.0 mg/kg/injection, schedule: Q01DX005 (ip), vehicle: saline)?
Its T/C is 103 % of control.

What about the T/C (endpoint: median survival time, dose: 50.0 mg/kg/injection, schedule: Q01DX005 (ip), vehicle: saline with Tween-80) of the same molecule?
The T/C was 94 % of control.

What about the T/C (endpoint: median survival time, dose: 65.0 mg/kg/injection, schedule: Q01DX005 (ip), vehicle: saline with Tween-80) of the same molecule?
The T/C was 100 % of control.

What about the T/C (endpoint: median survival time, dose: 72.0 mg/kg/injection, schedule: Q01DX005 (ip), vehicle: saline) of the same molecule?
Its T/C is 97 % of control.

What about the T/C (endpoint: median survival time, dose: 100.0 mg/kg/injection, schedule: Q01DX005 (ip), vehicle: saline with Tween-80) of the same molecule?
The T/C was 93 % of control.

What about the T/C (endpoint: median survival time, dose: 130.0 mg/kg/injection, schedule: Q01DX005 (ip), vehicle: saline with Tween-80) of the same molecule?
The T/C was 101 % of control.

What about the T/C (endpoint: median survival time, dose: 200.0 mg/kg/injection, schedule: Q01DX005 (ip), vehicle: saline with Tween-80) of the same molecule?
The T/C was 94 % of control.

With `COC1CCC(/C=C(\C#N)C2CCC([N+](=O)[O-])CC2)CC1` (stereo not drawn) as the molecule, how does the T/C [1] read?
Its T/C is 86 % of control.

What about the T/C (endpoint: mean survival time, dose: 50.0 mg/kg/injection, schedule: Q01DX009 (ip), vehicle: saline with Tween-80) of the same molecule?
The T/C was 88 % of control.

And the T/C (endpoint: mean survival time, dose: 400.0 mg/kg/injection, schedule: Q01DX009 (ip), vehicle: saline with Tween-80)?
The T/C was 94 % of control.

Which results are given for `CCOc1c(F)ccc(F)c1-c1c(F)ccc(F)c1OCC`?
T/C [2]: 98 % of control; T/C [3]: 95 % of control; T/C [4]: 106 % of control

Which T/C (endpoint: median survival time, dose: 3.12 mg/kg/injection, schedule: Q04DX003 (ip), vehicle: saline) does the source give for `NC1CCCCC1N.O=C1C=C/C(=C(/c2ccc(O)c(Br)c2)c2ccccc2S(=O)(=O)[O-])C=C1Br.O=C1C=C/C(=C(/c2ccc(O)c(Br)c2)c2ccccc2S(=O)(=O)[O-])C=C1Br.[Pt+4]` here?
Its T/C is 175 % of control.

What about the T/C (endpoint: median survival time, dose: 6.25 mg/kg/injection, schedule: Q04DX003 (ip), vehicle: saline) of the same molecule?
Its T/C is 219 % of control.

And the T/C (endpoint: median survival time, dose: 12.5 mg/kg/injection, schedule: Q04DX003 (ip), vehicle: saline)?
The T/C was 239 % of control.

And the T/C (endpoint: median survival time, dose: 25.0 mg/kg/injection, schedule: Q04DX003 (ip), vehicle: saline)?
Its T/C is 329 % of control.

For `C=C(Br)CSC#N`, which T/C [2] is on record?
Its T/C is 96 % of control.

And the T/C [3]?
The T/C was 112 % of control.

And the T/C [4]?
The T/C was 96 % of control.
